In article PMC8949075, “Evaluation of Two Novel Hydantoin Derivatives Using Reconstructed Human Skin Model Episkin^TM: Perspectives for Application as Potential Sunscreen Agents” (Molecules, 2022):

Assays:
[1] = CHO-K1 cytotoxicity assay (MTT); format: cell-based; settings: Chinese hamster, concentrations ranging from 1 to 10 µM, read-out: viability of cells
Method: The Chinese hamster ovary CHO-K1 cell line was obtained from the American Type Culture Collection (ATCC CCL-61). The CHO-K1 cell line was cultured in a humidified incubator at 37 °C with 5% CO2, in F-12K Medium (Kaighn’s Modification of Ham’s F-12 Medium) (ATCC) supplemented with 10% fetal bovine serum (FBS; Gibco, Waltham, MA, USA) and antibiotics (1% streptomycin/penicillin salts mixture, Sigma–Aldrich, Darmstadt, Germany).
The cells were seeded at a density of 6 × 10^3 on 96-well plates. […] Test compounds and 4MBC were dissolved in DMSO (solvent, final concentration 0.1%) and ethanol (co-solvent, final concentration 1%). At the end of the incubation period, 10 µL of MTT reagent was added to each well. After 4 h incubation (37 °C, 5% CO2), the medium was discarded, and the formazan produced in the cells appeared as dark crystals in the bottom of the wells. Next, pure DMSO was added to each well. The optical density data of converted dye was measured at 570 nm (A570) on microplate reader. […] The experiment was conducted two times with three repetitions for each condition.

CHO-K1 cells = assay: In vitro micronucleus assay; format: cell-based, Chinese hamster; settings: for DB (dicentric bridges) / MN (micronuclei) / NB (nuclear buds): count in 1000 binucleated cells per slide; for effect on MN, DB, NB and NDI: 1, 5 and 10 µM
Method: The CHO-K1 cells were seeded in 6-well plates at a density of 1 × 10^6 cells/well and incubated overnight at 37 °C, 5% CO2 atmosphere. […] The test compounds and 4MBC were dissolved in DMSO (solvent, final concentration 0.1%) and ethanol (co-solvent, final concentration 1%). After 24 h of treatment, the medium was removed, and the cells were rinsed with PBS. Then, fresh medium containing cytochalasin B (CytB; Sigma Aldrich, Darmstadt, Germany) (4.5 µg/mL) was added and incubation was continued for the next 24 h.
After the incubation period, the cells were washed with fresh medium, detached by trypsinization, and centrifuged. The supernatant was discarded and 5 mL of 1% ice-cold sodium citrate (Chempur, Piekary Śląskie, Poland) was added to the cell pellet, which was then gently resuspended. After 15 s, 5 mL of freshly prepared fixative solution (methanol/acetic acid, 3:1) and 4 drops of formaldehyde were added. The cell suspension was centrifuged (5 min, 1000 rpm), the supernatant was discarded again, and the pellet was fixed in fixative mixture two more times, without formaldehyde. After the third fixation, part of the supernatant was removed, and around 1 mL of the supernatant was retained to resuspend the cells. The suspension was then dripped onto clean, previously frozen, glass slides to dry. After air-drying, the slides were stained with Giemsa dye (1:20 in phosphate buffer) for 5 min [56, 78, 79].
One thousand binucleated cells per slide with intact nuclei of equal size, similar pattern of cytoplasm staining, intact membrane, and distinguishable from adjacent cells, without apoptotic and necrotic cells were analyzed. Only the micronuclei with the same morphology and color of the main nuclei, with 1/16 to 1/3 of the major nucleus diameter, unrefringent and not overlapping or connected to the main nuclei were counted. Moreover, the presence of dicentric bridges (DB) and nuclear buds (NB) in the binucleated cells was analyzed. The nuclear division index (NDI) was calculated using the following formula: [(1 × MOC) + (2 × BC) + (3 × MUC)]/N, where MOC is the number of mononuclear cells, BC is the number of binuclear cells, MUC represents the number of multinuclear cells, and N is the total number of scored cells. The micronucleus incidence was presented as a number of micronuclei per 1000 examined binuclear cells. The experiment was conducted two times with three repetitions for each condition.

[2] = In vitro microsomal biotransformation; format: in vitro ADME, human; settings: for t1/2 (in vitro half time): HLMs 0.8 mg/mL; for t1/2 (in vitro half time) / microsomal CLint at 20 µM / half-life at 20 µM: 20 µM, 37 °C; for Biotransformation (main metabolite M, ΔM −28): in the absence or presence of NADPH; for microsomal CLint at 20 µM / half-life at 20 µM: human, liver microsomes, pH 7.4, HLMs 0.8 mg/mL; for microsomal CLint at 20 µM: read-out: Clint (intrinsic clearance); for half-life at 20 µM: read-out: t1/2 (in vitro half time)
Method: The microsome incubation procedure was adapted from the previous studies. Reaction mixtures comprising the test compound JH3 or JH10 (20 µM in methanol), human liver microsomes (HLMs; Sigma Aldrich, Darmstadt, Germany) (0.8 mg/mL), and 100 mM potassium phosphate buffer (pH 7.4) were preincubated before the addition of NADPH-regenerating system (NADP, glucose-6-phosphate and glucose-6-phosphate dehydrogenase in potassium phosphate buffer). The NADPH-regenerating system and buffer components were obtained from Sigma-Aldrich (Darmstadt, Germany). Incubation was conducted for different time points (i.e., 5, 15, and 30 min) with temperature set at 37 °C. The reaction was quenched with ice-cold methanol, followed by the addition of internal standard (IS)–PTX (20 µM). The mixture was then centrifuged.
Supernatant analysis was performed using UHPLC/MS (Waters Corporation, Milford, MA, USA). Two control samples were prepared with each incubation set. The first, a mixture of a test compound and potassium phosphate buffer, and without the addition of HLMs nor the NADPH-regenerating system, was used to exclude the possibility of hydrolysis facilitated by the buffer solution. The second, a mixture of a test compound, potassium phosphate buffer and HLMs, but without the NADPH-regenerating system solution, was designed to evaluate the production of metabolites in the presence of enzymes but the absence of NADPH [14, 82]. The assays were repeated two times. The in vitro half time (t1/2) for JH3 was established from the slope of the linear regression of ln percent parent compound remaining against incubation time. Intrinsic clearance (Clint) was obtained from the equation: Clint = (volume of incubation [µL] (i.e., 250 µL)/protein in the incubation [mg] (i.e., 0.2 mg)) × 0.693/t1/2 [83, 84, 85].

[3] = parameters: method as in PMID 31238526; settings: cited from earlier work
[4] = test system: MCF-7 breast cancer model; parameters: method as in PMID 31238526; settings: cited from earlier work
[5] = test system: selected human skin cells; parameters: method as in PMID 31238526; settings: cited from earlier work

Row | SMILES | viability at 24 h [1] [%] | NDI (nuclear division index) (CHO-K1 cells; 1 µM) | DB (dicentric bridges) (CHO-K1 cells; 1 µM) | MN (micronuclei) (CHO-K1 cells; 1 µM) | NB (nuclear buds) (CHO-K1 cells; 1 µM) | NDI (nuclear division index) (CHO-K1 cells; 5 µM) | DB (dicentric bridges) (CHO-K1 cells; 5 µM) | MN (micronuclei) (CHO-K1 cells; 5 µM) | NB (nuclear buds) (CHO-K1 cells; 5 µM) | NDI (nuclear division index) (CHO-K1 cells; 10 µM) | DB (dicentric bridges) (CHO-K1 cells; 10 µM) | MN (micronuclei) (CHO-K1 cells; 10 µM) | NB (nuclear buds) (CHO-K1 cells; 10 µM) | effect on MN, DB, NB and NDI (CHO-K1 cells) | t1/2 (in vitro half time) [2] | Biotransformation (main metabolite M, ΔM −28) ([2]; HLMs) | microsomal CLint at 20 µM [2] [µL/min/mg] | half-life at 20 µM [2] [min] | photostability [3] | estrogenic activity [4] | other results
1 | CCOC(=O)CN1C(=O)/C(=C/C=C/c2ccc(OC)cc2)N(CC(=O)OCC)C1=O [JH3, diethyl 2,2′-((Z)-4-((E)-3-(4-methoxyphenyl)allylidene)-2,5-dioxoimidazolidine-1,3-diyl)diacetate] | > 75 | 1.45 | 3.8 | 10.1 ± 3.3 | 3.6 | 1.40 | 4.1 | 10.5 ± 3.9 | 3.5 | 1.32 | 3.6 | 12.0 ± 4.2 | 5.4 | did not significantly alter any of the evaluated parameters | 5 - min | - Hydrolysis | > 172 | ~5 | photostable | no estrogenic activity | parent compound remaining ([2]; HLMs, 15 min time point): Approximately 5%; cytotoxicity [5]: no cytotoxicity
2 | CCOC(=O)CN1C(=O)/C(=C/c2ccc(OC)cc2)N(CC(=O)OCC)C1=O [JH10, diethyl 2,2′-((Z)-4-(4-methoxybenzylidene)-2,5-dioxoimidazolidine-1,3-diyl)diacetate] | > 75 | 1.31 | 3.5 | 9.0 ± 3.9 | 4.3 | 1.38 | 3.8 | 11.2 ± 3.6 | 5.2 | 1.47 | 3.5 | 9.5 ± 3.7 | 3.2 | did not significantly alter any of the evaluated parameters | <<5 - min | - Hydrolysis | > 172 | ~5 | photostable | no estrogenic activity | parent compound detected ([2]; HLMs, 5 min time point): less than 0.5%; cytotoxicity [5]: no cytotoxicity
